Test results from publication PMC4669685, “Peptides derived from the dependence receptor ALK are proapoptotic for ALK-positive tumors” (Cell Death & Disease, 2015).
Where a SMILES comes first, the peptide text is derived from it. The star is where a group is joined. Myristoyl = CCCCCCCCCCCCCC(=O)*

Columns and labels:
Assay type in all cases: cell-based, human
[1] = system: Cost ALCL cells (NPM–ALK); experiment: Cell viability assay (CellTiterGlo, ATP content); details: increasing doses, 48 h
Procedure: (§1) At the end of incubation, cell viability was assessed by measuring the ATP content of wells using the luminescence-based CellTiterGlo assay (Promega) with a Berthold Mithras (http://www.berthold.com) plate reader. Each culture condition was assayed in triplicate.

[2] = system: SH-SY5Y neuroblastoma cells (ALK-F1174L); experiment: Cell viability assay (CellTiterGlo, ATP content); details: increasing doses, 48 h
Procedure: as §1

caspase 3 in Cost cells = experiment: Western blot of caspase 3 cleavage; details: Cost cells treated 6 h; P36 10 μM, doxorubicin 2 μM; compared with culture medium
Procedure: Cells were washed once with PBS, pelleted, and extracted in RIPA buffer (150 mM NaCl, 20 mM Tris-HCl, pH 7.7, 4 mM EDTA, 0.5% Triton X-100) containing 10 μg/ml leupeptin, 2 μg/ml aprotinin, 1 mM 4-2-aminoethyl-benzenesulfonyl fluoride, 1 mM sodium orthovanadate, and 4 mM sodium fluoride for 30 min on ice. Cell extracts were either centrifuged at 10 000 × g for 20 min at 4 °C and the supernatant recovered, or sonicated for better extraction of nuclear proteins. The protein content was quantified using the Bio-Rad (www.biorad.com) Bradford protein assay. For western blotting, total cell proteins were subjected to SDS-polyacrylamide gel electrophoresis (SDS-PAGE) in a 4–12% bis/tris acrylamide (Novex NuPAGE, Invitrogen) gradient gel using the Nupage system with Mops SDS buffer under reducing conditions and transferred for 3 h at 60 V onto a nitrocellulose membrane. The blots were hybridized with the following primary antibodies:
ZAL4 anti-human ALK rabbit monoclonal antibody (1/200, Invitrogen), phospho-ALK (Y1604) (1/1000, #3341, Cell Signaling Technology, www.cellsignal.com) rabbit antiserum, mouse monoclonal anti-caspase 3 (1/200, sc-7148, Santa Cruz Biotechnologies, www.scbt.com), rabbit polyclonal anti-p53 (1/500, #554167, BD Pharmingen, www.bdbiosciences.com) and rabbit polyclonal anti-GAPDH (1/2000, Millipore, www.millipore.com) antibodies. […]

| SMILES | effect on cell viability (cytotoxicity) [1] | effect on cell viability (cytotoxicity) [2] | caspase 3 cleavage (western blot) (caspase 3 in Cost cells) |
| --- | --- | --- | --- |
| CCCCCCCCCCCCCC(=O)N[C@@H](CC(=O)O)C(=O)N[C@@H](Cc1ccc(O)cc1)C(=O)N[C@@H](CC(N)=O)C(=O)N1CCC[C@H]1C(=O)N[C@@H](CC(N)=O)C(=O)N[C@@H](Cc1ccc(O)cc1)C(=O)N[C@@H](CS)C(=O)N[C@@H](Cc1ccccc1)C(=O)N[C@@H](C)C(=O)NCC(=O)N[C@@H](CCCCN)C(=O)N[C@H](C(N)=O)[C@@H](C)O [P12-1] (Myristoyl-DYNPNYCFAGKT-NH2) | no effect | – | – |
| CCCCCCCCCCCCCC(=O)N[C@@H](CO)C(=O)N[C@@H](CO)C(=O)N[C@H](C(=O)N[C@@H](CO)C(=O)N[C@@H](CC(=O)O)C(=O)N[C@@H](CC(C)C)C(=O)N[C@@H](CCCCN)C(=O)N[C@@H](CCC(=O)O)C(=O)N[C@H](C(=O)N1CCC[C@H]1C(=O)N[C@@H](CCCNC(=N)N)C(=O)N[C@@H](CCCCN)C(N)=O)C(C)C)[C@@H](C)CC [P12-3] (Myristoyl-SSISDLKEVPRK-NH2) | dose-dependent cytotoxicity | – | – |
| CCCCCCCCCCCCCC(=O)N[C@@H](CCCCN)C(=O)N[C@@H](CCC(=O)O)C(=O)N[C@H](C(=O)N1CCC[C@H]1C(=O)N[C@@H](CCCNC(=N)N)C(=O)N[C@@H](CCCCN)C(=O)N[C@@H](CC(N)=O)C(=O)N[C@H](C(=O)N[C@H](C(=O)N[C@@H](CC(C)C)C(=O)N[C@H](C(=O)N[C@@H](CCCNC(=N)N)C(N)=O)[C@@H](C)CC)[C@@H](C)O)[C@@H](C)CC)C(C)C [P12-4] (Myristoyl-KEVPRKNITLIR-NH2) | no effect | – | – |
| CCCCCCCCCCCCCC(=O)N[C@@H](CC(N)=O)C(=O)N[C@H](C(=O)N[C@H](C(=O)N[C@@H](CC(C)C)C(=O)N[C@H](C(=O)N[C@@H](CCCNC(=N)N)C(=O)NCC(=O)N[C@@H](CC(C)C)C(=O)NCC(=O)N[C@@H](Cc1c[nH]cn1)C(=O)NCC(=O)N[C@@H](C)C(N)=O)[C@@H](C)CC)[C@@H](C)O)[C@@H](C)CC [P12-5] (Myristoyl-NITLIRGLGHGA-NH2) | dose-dependent cytotoxicity | – | – |
| CCCCCCCCCCCCCC(=O)N[C@@H](CCC(=O)O)C(=O)NCC(=O)N[C@@H](CC(C)C)C(=O)N[C@@H](CC(C)C)C(=O)N[C@@H](Cc1ccccc1)C(=O)N[C@H](C(=O)N[C@@H](Cc1ccc(O)cc1)C(=O)N[C@@H](Cc1c[nH]cn1)C(=O)N[C@H](C(=O)N[C@H](C(=O)N[C@@H](CCCCN)C(=O)N[C@@H](CCCNC(=N)N)C(=O)N[C@@H](CC(=O)O)C(=O)N[C@@H](Cc1ccc(O)cc1)C(=O)NCC(=O)N[C@@H](CC(N)=O)C(=O)N[C@@H](CC(N)=O)C(=O)N[C@@H](CC(C)C)C(=O)N[C@@H](C)C(=O)N[C@@H](CC(=O)O)C(=O)N[C@@H](CO)C(=O)N[C@H](C(=O)NCC(=O)N1CCC[C@H]1C(=O)NCC(=O)N[C@@H](CC(N)=O)C(=O)N[C@H](C(=O)N[C@@H](CO)C(=O)N[C@@H](C)C(=O)N1CCC[C@H]1C(=O)N[C@@H](CO)C(=O)N[C@H](C(=O)N[C@@H](CS)C(=O)N[C@@H](CCCCN)C(=O)N[C@@H](CCCNC(=N)N)C(=O)N[C@@H](CCCCN)C(N)=O)[C@@H](C)CC)[C@@H](C)O)[C@@H](C)CC)[C@@H](C)O)C(C)C)[C@@H](C)CC [P36scr] (Myristoyl-EGLLFIYHVTKRDYGNNLADSIGPGNTSAPSICKRK-NH2) | failed to affect | failed to affect | – |
| COc1cccc2c1C(=O)c1c(O)c3c(c(O)c1C2=O)C[C@@](O)(C(=O)CO)C[C@@H]3O[C@H]1C[C@H](N)[C@H](O)[C@H](C)O1 [doxorubicin] | – | – | increased caspase 3 cleavage |
